# US20110091473A1, “NOVEL ANTIBODY THERAPIES” (GENMAB A/S, priority 2007, published 2011)
# How the values were obtained:
# [1] = system: B cell enriched cell population of a healthy volunteer; assay: Anti-CD20-induced CDC of freshly isolated primary B cells; type: cell-based, human; conditions: for primary B cell population killed / cell lysis: MβCD-treated, saturating conditions (≧10 μg/ml); for cell lysis upon cholesterol depletion: primary B cells treated with MβCD
# Procedure: Blood was obtained from a donor (either from a healthy volunteer or from patients included in clinical trials related to 2F2). Informed consent was provided according to the Declaration of Helsinki. The blood was used to isolate peripheral blood mononuclear cells (PMBC) via […] gradient separation. Briefly, 10 ml of whole blood was supplemented with 20-25 ml PBS (Braun, Oss, Netherlands). 13 ml of Lymphocyte Separation Medium (Lonza, Verviers, Belgium) was pipetted carefully underneath the diluted whole blood solution. The solution was centrifuged at 2000 rpm for 20 minutes whereupon the interphase containing the PBMC was collected. The cells were washed twice in PBS, counted with trypan blue and suspended in test medium (RMPI 1640/pen strep/0.1% BSA) at a concentration of 2-4×10^6 viable cells/ml. Cells were used to enrich B cells via negative depletion as described in Example 8.
# PBMC (obtained as described under Example 17) were used to enrich for B cells using the Dynal B cell negative isolation kit (Dynal, Invitrogen, Carlsbad, Calif.) according to manufacturer's instruction. In brief, PBMC were washed and incubated for 20 minutes with mouse monoclonal antibodies directed against CD2, CD14, CD16, CD36, CD43 or CD235a at 4° C. Magnetic beads coated with human IgG4 against mouse monoclonal antibodies were added and the mixture was again incubated for 15 minutes at 4° C. After incubation mouse mAb-stained cells were separated from the mixture using a magnet. The remaining cells are considered as the B cell enriched population.
# Human B cells were isolated from whole blood of a healthy volunteer (donor A) as described under Example 17 and Example 18.
# The B cell enriched cell population of donor A and Daudi cells were incubated with MβCD as described under Example 2 and cell surface protein expression and sensitivity for CDC was measured.
# [2] = system: RAJI cells; assay: CDC of RAJI cells, MTT analysis; type: cell-based, human
# Procedure: CDC was induced by incubating B cells with anti-CD20 mAb (as described in Example 2). After 1-hour incubation (3-(4,5-dimethylthiazol-2-yl)-2,5-diphenyltetrazolium bromide (MTT) solution (5 mg/ml, Roche, Diagnostics, Almere, The Netherlands) was added to each well (flat-bottom microtiter plates; Nunc, Rochester, N.Y.). The reaction was stopped after 4 hours of incubation at 37° C. by the addition of 100 μl of 20% SDS (Roche Diagnostics, Almere, The Netherlands). After overnight incubation at 37° C. the absorbance of the samples was measured at 550-525 nm using an Elisa reader (EL808x, Biotek instruments, Highland park, Vt., USA). Cytotoxicity was expressed as a relative viability of the stimulated cells compared to cells incubated with medium only and was calculated as follows: relative viability=[(Ae−Ab)/(Ac−Ab)]*100, where Ab is the background absorbance, Ae is experimental absorbance of the lysed cells and Ac is the absorbance of untreated cells. The viability was expressed as percentage survival in comparison to non-cholesterol depleted cells (control).
# [3] = system: Daudi cells; assay: CDC of Daudi cells, Alamar Blue assay; type: cell-based, human
# [4] = system: WIL2-S cells; assay: CD20 mAb-induced CDC of WIL2-S cells, PI/FACS analysis; type: cell-based, human; conditions: for CDC inducing capacity after cholesterol replenishment: WIL2-S cells, cholesterol replenished; for sensitivity for CDC induction: lovastatin-treated vs non-treated WIL2-S cells
# [5] = biological target: T1, CD20 on Daudi cells (Homo sapiens, UniProt P11836); assay: FACS binding of anti-CD20 mAb to MβCD-treated Daudi cells
# T1 construct: endogenous in cells; host or cells: Daudi cells
# T1 sequence (P11836 1-297): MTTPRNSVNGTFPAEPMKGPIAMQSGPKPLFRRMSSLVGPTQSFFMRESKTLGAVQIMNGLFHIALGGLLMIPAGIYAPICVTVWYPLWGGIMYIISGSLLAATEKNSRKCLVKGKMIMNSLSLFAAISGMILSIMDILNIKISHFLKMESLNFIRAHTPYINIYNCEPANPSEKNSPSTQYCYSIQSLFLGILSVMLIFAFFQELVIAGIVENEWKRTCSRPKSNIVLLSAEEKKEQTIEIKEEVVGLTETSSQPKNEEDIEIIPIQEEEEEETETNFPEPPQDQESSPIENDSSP
# Procedure: To deplete cholesterol from the cell membrane, methyl-beta-cyclodextrin (MβCD, Sigma, Zwijndrecht, The Netherlands) was added in varying concentrations to Daudi cells and RAJI-CD20high cells and incubated for 30 minutes at 37° C. under gentle shaking conditions. After incubation the cells were washed twice in PBS and resuspended in test medium to a concentration of 2×10^6 viable cells/ml. […] After washing twice with FACS buffer (PBS, 0.1% Bovine Serum Albumine, 0.02% Sodium Azide), cells were analyzed on a FACS Calibur (Becton Dickinson, Breda, The Netherlands). […] Binding is expressed as mean fluorescence intensity.
# Cholesterol was depleted from the cell membrane of various B cells using varying concentrations of MβCD (as described in Example 2). Cells (1×10^5 cells/staining) were incubated with a serial dilution of human CD20 mAb 2F2 starting at saturating concentrations for 30 minutes at 4° C. After washing with FACS buffer, polyclonal rabbit-anti-human IgG-FITC (DAKO A/S, Denmark) was added for 30 minutes at 4° C. The cells were washed again, resuspended in FACS buffer and analyzed by flow cytometry. The mean fluorescence intensity (MFI) is a measure for CD20 binding of the mAb. Sigmoidal dose-response curves were calculated using non-linear regression and the EC50 of mAb binding were determined (using GraphPad Prism 4 statistical software).
# [6] = system: Daudi cells; assay: CD20 mAb-induced CDC of Daudi cells, PI/FACS analysis; type: cell-based, human; conditions: for induction of CDC: non-treated Daudi cells, 15% normal human serum
# Procedure: Cells were either non-treated or cholesterol-depleted as described in Example 2, Example 3 and Example 4, and resuspended in test medium to a concentration of 2×10^6 viable cells/ml. Daudi cells were used as target cells in a mAb-induced CDC assay. 50 μl of cell suspension was incubated with 50 μl anti-CD20 mAb in a serial dilution for 15 minutes at room temperature. After the incubation period, Normal Human Serum (M0008, Sanquin, Amsterdam, The Netherlands) was added as a source of complement (final concentration, 15%) to the cell suspension in round-bottomed microtiter plates (Nunc, Rochester, N.Y.). The mixture was incubated for 45 minutes at 37° C. after which the reaction was stopped by placing the samples on ice. Propidium iodide (PI, Sigma Aldrich, Zwijndrecht, The Netherlands) was added as a means to visualize the DNA content which becomes accessible upon permeabilisation of the cell membrane. The amount of PI-positive cells is directly correlated to the amount of dead cells, and measured using flow cytometry.
Substance,primary B cell population killed / cell lysis [1],cell lysis upon cholesterol depletion [1],survival after CDC induction ([2]; RAJI cells depleted by lovastatin or MβCD vs non-treated),capability to lyse cells after cholesterol replenishment ([2]; depleted RAJI cells replenished with cholesterol vs non-treated),survival upon mAb-induced CDC ([3]; lovastatin-treated Daudi cells),CDC inducing capacity after cholesterol replenishment [4],sensitivity for CDC induction [4],binding affinity upon cholesterol depletion ([5]; MβCD-treated Daudi cells),CDC-mediated lysis ([6]; cholesterol-depleted (lovastatin or MβCD) Daudi cells),induction of CDC [6],"lysis of B cell enriched cell population ([1]; non-depleted primary B cells, donor A)","potency to lyse cells in presence of complement, compared with rituximab ([2]; RAJI cells depleted of cholesterol with MβCD)","potency in inducing cell lysis, compared with rituximab or 11B8 ([3]; Daudi cells)",CDC induction when treating cells with lovastatin ([3]; lovastatin-treated Daudi cells),"reduction of binding affinity for CD20 (increase in EC50) ([5]; 0 mg/ml vs 5 mg/ml MβCD, Daudi cells)","binding of FITC-conjugated mAb (mean fluorescence intensity) ([5]; Daudi cells treated with varying concentrations of MβCD, 30 min)",cells lysed via CDC ([6]; cholesterol-depleted Daudi cells)
"rituximab: anti-CD20 antibody Rituxan/MabThera, type I",20-25%,reduced,enhanced survival,further increased the capability,enhanced survival,fully restored,less sensitive,negatively affected,abrogated,induced CDC,–,–,–,–,–,–,–
"2F2: human anti-CD20 mAb, VH SEQ ID NO:1, VL SEQ ID NO:2, disclosed in WO 2004/035607",approximately 75%,reduced,–,–,enhanced survival,fully restored,less sensitive,–,–,induced CDC,could be lysed,more potent,more potent,still capable of inducing CDC,~8 fold,dose-dependent decrease in binding,50%
